According to ChEMBL document CHEMBL5230135, “Peptide Ligands Specifically Targeting HER2 Receptor and the Role Played by a Synthetic Model System of the Receptor Extracellular Domain: Hypothesized Future Perspectives” (J Med Chem, 2020):
Where a SMILES comes first, the peptide text is derived from it.

Columns and labels:
[1] = Biodistribution in pancreas of BALB/c nu/nu mouse measured in organ after 1 hr; type: ADME, organism-based; settings: in vivo
[2] = Biodistribution in Gastrointestinal tract of BALB/c nu/nu mouse measured in organ after 1 hr; type: ADME, organism-based; settings: in vivo
[3] = Biodistribution in spleen of BALB/c nu/nu mouse measured in organ after 1 hr; type: ADME, organism-based; settings: in vivo
[4] = target: T1, Receptor tyrosine-protein kinase erbB-2 (Homo sapiens, UniProt P04626); assay: Binding affinity to HER2 in human BT-474 cells assessed as dissociation constant by measuring high affinity ligand binding site by LigandTracer technique; type: cell-based
[5] = Biodistribution in lung of BALB/c nu/nu mouse measured in organ after 1 hr; type: ADME, organism-based; settings: in vivo
[6] = Biodistribution in stomach of BALB/c nu/nu mouse measured in organ after 1 hr; type: ADME, organism-based; settings: in vivo
[7] = target: T1, Receptor tyrosine-protein kinase erbB-2; assay: Binding affinity to HER2 in human BT474 cells assessed as dissociation constant by measuring low affinity ligand binding site by LigandTracer technique; type: cell-based, BT-474
[8] = Biodistribution in Carcass of BALB/c nu/nu mouse measured in organ after 1 hr; type: ADME, organism-based; settings: in vivo
[9] = Biodistribution in brain of BALB/c nu/nu mouse measured in organ after 1 hr; type: ADME, organism-based; settings: in vivo
[10] = Biodistribution in kidney of BALB/c nu/nu mouse measured in organ after 1 hr; type: ADME, organism-based; settings: in vivo
[11] = Biodistribution in liver of BALB/c nu/nu mouse measured in organ after 1 hr; type: ADME, organism-based; settings: in vivo
[12] = Biodistribution in muscle of BALB/c nu/nu mouse measured in organ after 1 hr; type: ADME, organism-based; settings: in vivo
[13] = Biodistribution in bone of BALB/c nu/nu mouse measured in organ after 1 hr; type: ADME, organism-based, Bone element; settings: in vivo

T1 sequence (P04626 whole entry): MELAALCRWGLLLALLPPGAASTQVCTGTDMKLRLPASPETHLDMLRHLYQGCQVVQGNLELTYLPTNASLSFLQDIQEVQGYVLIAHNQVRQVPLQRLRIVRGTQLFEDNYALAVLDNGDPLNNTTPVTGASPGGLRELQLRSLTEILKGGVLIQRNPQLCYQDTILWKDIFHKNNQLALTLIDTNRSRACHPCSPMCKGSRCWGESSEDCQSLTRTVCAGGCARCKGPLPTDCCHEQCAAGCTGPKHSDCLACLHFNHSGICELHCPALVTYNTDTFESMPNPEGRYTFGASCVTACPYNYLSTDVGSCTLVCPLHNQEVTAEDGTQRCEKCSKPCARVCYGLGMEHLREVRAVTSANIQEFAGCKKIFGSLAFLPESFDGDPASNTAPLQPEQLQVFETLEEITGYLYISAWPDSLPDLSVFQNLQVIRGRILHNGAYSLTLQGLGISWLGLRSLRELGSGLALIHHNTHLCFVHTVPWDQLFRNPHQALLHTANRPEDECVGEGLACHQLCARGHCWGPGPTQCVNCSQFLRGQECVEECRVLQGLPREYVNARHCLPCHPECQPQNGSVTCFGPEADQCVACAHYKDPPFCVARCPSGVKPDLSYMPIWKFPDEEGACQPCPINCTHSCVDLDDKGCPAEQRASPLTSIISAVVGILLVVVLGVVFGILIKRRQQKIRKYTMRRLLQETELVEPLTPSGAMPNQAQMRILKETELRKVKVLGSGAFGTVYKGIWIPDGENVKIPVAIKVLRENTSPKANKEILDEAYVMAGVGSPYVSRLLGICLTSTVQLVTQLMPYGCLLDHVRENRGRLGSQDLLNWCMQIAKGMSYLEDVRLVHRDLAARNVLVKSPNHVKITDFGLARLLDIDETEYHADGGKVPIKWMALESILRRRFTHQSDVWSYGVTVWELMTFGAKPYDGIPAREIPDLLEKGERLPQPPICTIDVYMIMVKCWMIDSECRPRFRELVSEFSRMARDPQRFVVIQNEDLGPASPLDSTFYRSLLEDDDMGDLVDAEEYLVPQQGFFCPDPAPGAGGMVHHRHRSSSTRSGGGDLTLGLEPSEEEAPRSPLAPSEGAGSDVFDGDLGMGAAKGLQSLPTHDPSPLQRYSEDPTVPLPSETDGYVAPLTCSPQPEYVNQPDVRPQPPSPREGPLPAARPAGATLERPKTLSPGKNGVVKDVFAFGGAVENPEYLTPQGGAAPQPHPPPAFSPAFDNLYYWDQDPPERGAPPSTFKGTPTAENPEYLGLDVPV

Drug uptake [1]: 0.01 %ID
Drug uptake [2]: 0.83 %ID
Drug uptake [3]: 0.02 %ID
Kd [4]: 4.9 nM
Drug uptake [5]: 0.06 %ID
Drug uptake [6]: 0.05 %ID
Kd [7]: 103 nM
Drug uptake [8]: 3.47 %ID
Drug uptake [9]: 0 %ID
Drug uptake [10]: 2 %ID
Drug uptake [11]: 0.47 %ID
Drug uptake [12]: 0.04 %ID
Drug uptake [13]: 0.01 %ID
Structure (SMILES): CC(C)[C@H](NC(=O)[C@H](C)NC(=O)[C@@H](NC(=O)[C@H](CC(N)=O)NC(=O)[C@@H](NC(=O)[C@H](CC(=O)O)NC(=O)[C@H](CCC(N)=O)NC(=O)CN(CCN(CCN(CC(=O)O)CC(=O)O)CC(=O)O)CC(=O)O)C(C)C)[C@@H](C)O)C(=O)N[C@@H](C)C(=O)N[C@@H](Cc1c[nH]c2ccccc12)C(N)=O (HELM PEPTIDE1{[O=C(O)CN(CCN(CC(=O)O)CC(=O)O)CCN(CC(=O)O)CC(=O)[*:2]].Q.D.V.N.T.A.V.A.W.[am]}$$$$V2.0)
